Data reported in ChEMBL document CHEMBL3507680, “University of Dundee, Gates Library screen for HepG2 cell viability”.

assay: Human HepG2 cell viability assay in 384 well format; assay type: toxicity, cell-based; design: dose 125 nL, time 70.5 hour; concentration not given beside the values; details: HepG2 cells, read-out: Inhibition

Row | Compound | cytotoxicity at 70.5 h [%]
1 | Cc1nc(C2CCCN2C(=O)CCCOc2cccc(F)c2)no1 (stereo not given) | -4.99
2 | c1cn(-c2ccc(N3CCC(NC4CC4)CC3)cc2)cn1 | -14.2
3 | CCOCC(O)c1nc2c([nH]1)CC(C)(C)CNC2=O (stereo not given) | -11.8
4 | CS(=O)(=O)NC[C@]12COC[C@H]1CN(C(=O)N1CCCC1)C2 | -4.24
5 | CN1CCCC(Cc2ccnc3ccncc23)CC1 (stereo not given) | 34.2
6 | O=C(CCc1nc2cccnc2[nH]1)NCc1cccnc1 | 0.275
7 | O=C(NCCCn1cccn1)N1CCCC1c1cccs1 (stereo not given) | -7.95
8 | CC(C)NC(=O)N1CCC2(CC(=O)N(c3cccc(F)c3)C2)C1 (stereo not given) | -12.8
9 | CC(C)N1CCCC2(CCN(C(=O)COCC(F)(F)C(F)F)C2)C1=O (stereo not given) | -3.34
10 | CCC(O)CN1CCN(C(=O)c2cnc3n[nH]c(C)c3c2)CC1 (stereo not given) | -7.48
11 | CCN1CCN(C[C@@H]2CN(c3ncccc3F)C[C@@H]2CO)CC1 | 23.4
12 | CS(=O)(=O)N1CCC(CNC(=O)c2cnccn2)CC1 | 31.3
13 | CC(=O)N1CCOC(c2c(C(=O)NCCN(C)C)sc3ccccc23)C1 (stereo not given) | -7.61
14 | Cc1csc(C2CCCCN2C(=O)c2c[nH]c(C)n2)n1 (stereo not given) | 0.914
15 | CCC(C)NC(=O)Cn1ccc2c(C)nn(CC)c2c1=O (stereo not given) | 30.5
16 | Cc1ccc(CNCc2cc(Br)c3c(c2)OCO3)cc1 | -5.25
17 | CC1(C)CN(C(=O)c2ncc(F)cc2F)CCC1(O)CN1CCOCC1 (stereo not given) | -0.112
18 | O=C(c1ccc[nH]1)N1CCc2nnc(Cn3cccn3)n2CC1 | -2.61
19 | CCOCC(=O)NCCn1ccc(-c2ccccn2)n1 | -4.11
20 | CN(Cc1ccco1)[C@@H]1CN(Cc2ccco2)[C@@H]2CCCO[C@H]12 | -9.38
21 | CN1CCCC1CCNC(=O)Nc1ccccc1 (stereo not given) | -5
22 | CNC(=O)[C@@]12CCO[C@@H]1CCN(S(=O)(=O)c1cccc(C)c1)C2 | -5.31
23 | O=C1CO[C@H](c2ccc(NS(=O)(=O)Cc3ccccc3)cc2)[C@@H](CO)N1 | 12

Row | Compound | cytotoxicity at 70.5 h [%]
24 | CC(C)N(C)S(=O)(=O)N(C)Cc1cnn(Cc2ccccc2)c1 | 3.45
25 | CC(CCN(C)C)NC(=O)c1cccc(C(F)(F)F)c1F (stereo not given) | -1.47
26 | Cc1nccn1CCC1CCCCN1Cc1ccc(O)cc1Cl (stereo not given) | 15.6
27 | Cc1nc(CN2CCOC(CNc3cccnn3)C2)oc1C (stereo not given) | 30.3
28 | CCc1cnc(CN(C)C2CCN(CCc3ccccn3)C2)o1 (stereo not given) | 10.2
29 | Cc1nc(NCCc2ccc(Cl)cc2)cc(C(=O)N2CCOCC2)n1 | -7.59
30 | O=C(CC1CCCO1)Nc1ccc2c(ccn2CCN2CCOCC2)c1 (stereo not given) | -8.05
31 | COc1ccccc1-n1nc(CC(C)C)nc1Cc1nnc(N)s1 | 5.97
32 | COc1ccc2c(c1)CCN(CCC(=O)NC1CCCCC1)CC2 | -9.14
33 | CCc1csc(CNC2CCN(Cc3ccccc3)C2)n1 (stereo not given) | -8.44
34 | N#Cc1cc(NS(=O)(=O)CC2CCCCO2)ccc1F (stereo not given) | -0.517
35 | Cc1ccnn1CCNC(=O)c1cnc(N(C)C)nc1 | -4.92
36 | CSc1[nH]nc(NC(=O)c2cccs2)c1C#N | -10.4
37 | COCCc1noc(CN2CC(n3nc(C)cc3C)C2)n1 | 4.95
38 | CCN1CCN(C(=O)Cn2nc(C(F)(F)F)c(Br)c2C2CC2)CC1 | -7.97
39 | CC(=O)N1CCOC(CCc2cc(-c3c(C)noc3C)ncn2)C1 (stereo not given) | -0.21
40 | Cc1cnn(CC2CCCN2C(=O)Cc2c(C)noc2C)c1 (stereo not given) | -14
41 | CCN1CCO[C@@H]2CN(C(=O)c3ccc4[nH]ccc4c3)CC[C@@H]2C1 | -7.4
42 | Cc1nc(CNCc2ccc(N3CCC(CO)CC3)nc2)cs1 | -1.44
43 | COc1ccc(-c2n[nH]cc2CN(C)CCc2scnc2C)c(F)c1 | 1.84
44 | CC(C)Nc1nc2c(cc1C(=O)N(C)C)CCNCC2 | -6.7
45 | COc1cc(C2CC(=O)Nc3c2nc2n3CCCC2)ccc1O (stereo not given) | -7.4
46 | COc1cc2c(cc1OC)CCN(C(=O)Cn1nc(C)cc1C)CC2 | 2.01

Row | Compound | cytotoxicity at 70.5 h [%]
47 | Clc1ccccc1Cc1noc(CN2CCCC(CN3CCCC3)C2)n1 (stereo not given) | -3.9
48 | N[C@@H]1c2ccccc2C2(CCN(C(=O)c3ccc(=O)[nH]c3)CC2)[C@H]1O | -6.66
49 | CCN(C1CCN(c2cccc(F)c2C(C)=O)CC1)S(C)(=O)=O | -5.28
50 | O=c1ccc(-c2cccs2)nn1CN1CCN(c2ccccn2)CC1 | -23.6
51 | Cc1nnc(N2CCCC3(CN(Cc4ccc(F)cc4)CCO3)C2)o1 (stereo not given) | -1.36
52 | Cc1cccc(CNCCOc2ccc(S(C)(=O)=O)cc2)c1 | -0.853
53 | Cn1c(=O)[nH]c(=O)c2c1nc1n2CC(c2ccc(Cl)cc2)O1 (stereo not given) | 43
54 | Cc1nc(N)sc1C(=O)N1Cc2ccccc2OC2(CCOCC2)C1 | 31.2
55 | CCOC(=O)C1(O)CCN(C(=O)Nc2cccc(F)c2)CC1 | 4.4
56 | Cc1cccc(CN2C(=O)CCC23CCN(Cc2nccn2C)CC3)n1 | -4.21
57 | CN(Cc1cccnc1)[C@@H]1CN(C(=O)c2ccno2)[C@@H]2CCCO[C@H]12 | -5.28
58 | O=C(c1cc(-c2ccco2)cs1)N1CCOCC1 | -0.411
59 | CN(Cc1ccncc1)C(=O)NCc1nnc2n1CCCCC2 | 22.9
60 | COCCN1CCCC1c1cccc2c1OCCO2 (stereo not given) | 7.8
61 | O=C(NCCc1ccncc1)[C@H]1C[C@@H]2CCN(c3nncs3)C[C@H]2O1 | -11.9
62 | CSc1ccccc1CN1CCn2nc(CNC(=O)N(C)C)cc2C1 | -8.7
63 | COc1cccc2c1OCC(NC(=O)NCCc1ccccn1)C2 (stereo not given) | -9.54
64 | CC(=O)N1CCCC2(CCN(c3ccccc3)C2=O)C1 (stereo not given) | 12.8
65 | COCC(=O)N1CCC2(CC1)CCN(Cc1ccccn1)C2=O | -0.554
66 | COc1ccc(C(=O)NS(=O)(=O)c2cncc(Br)c2)c(OC)c1 | -7.26
67 | O=C(NCCNC(=O)c1scnc1Cl)c1cccs1 | -14.2
68 | CCc1nnc2n1CCN(CC(O)c1ccc3c(c1)OCCO3)C2 (stereo not given) | 23.6
69 | Cc1cccc(NC(=O)C2CCc3ccccc3N2)c1 (stereo not given) | -0.623

Row | Compound | cytotoxicity at 70.5 h [%]
70 | O=C(NCCOc1cccc(Cl)c1Cl)N1CCC2(CC1)OCCO2 | -4.01
71 | Cc1noc(C)c1CN(C)C(=O)c1ccc(O)nc1 | -5.72
72 | CCN(C)c1ncnc2c1CCN(C(=O)NCc1cccnc1)CC2 | 0.595
73 | CC1CCCN(CCNC(=O)c2ccn(-c3ccccc3)n2)C1 (stereo not given) | -5.27
74 | CCc1ccc(C(=O)N2CC[C@H](Oc3cccnc3C)[C@@H](O)CC2)cc1 | 14.4
75 | COc1ccc2nnc(CCCC(=O)NCCc3ccncc3)n2n1 | -5
76 | O=C(CCc1ccccc1F)N1CCC(Nc2cccnn2)CC1 | -1.09
77 | c1cncc(COCc2nnc3n2CCN(Cc2ccoc2)C3)c1 | -9.66
78 | Cc1ccc(-c2ccnc(N[C@H]3COC[C@@H]3N3CCCCC3)n2)c(C)n1 | -11.2
79 | Cc1ncncc1C(=O)N1CCCN(Cc2ncc(Cl)n2C)CC1 | -1.21
80 | CC(C)c1cc(O)nc(C2CCCN2C(=O)C(C)(C)C)n1 (stereo not given) | 26.4
81 | COc1ccc(CNC(=O)CNc2cc3c(cc2Cl)OCCO3)cc1 | -0.455
82 | CCN(Cc1noc(C)n1)C(=O)C(c1cccc(C)c1)N(C)C (stereo not given) | 10.7
83 | Nc1nnc(CCNC(=O)c2cccc(C3CCCNC3)c2)s1 (stereo not given) | -10.1
84 | O=C(CS(=O)(=O)Cc1csc(-c2ccc(F)cc2)n1)NCC1CC1 | -6.8
85 | CCCN(Cc1cnn(C)c1)S(=O)(=O)c1ccc(F)c(C#N)c1 | -7.37
86 | CCOCCC(=O)Nc1cccc(Oc2ccccn2)c1 | 23.9
87 | CC(C)CN1CC(C(=O)NCc2cccnc2-n2cccn2)CC1=O (stereo not given) | -8.02
88 | O=C(Cn1cc(-c2ccccc2)ncc1=O)Nc1ccncc1 | -13.4
89 | CC(C)N(C(=O)N1CCn2cncc2C1)C(C)C | 1.59
90 | O=C1NCC2CN(Cc3ccccc3OCc3ccccn3)CCN12 (stereo not given) | -13.1
91 | Cn1cc(C2SCC(=O)Nc3c2cnn3C(C)(C)C)cn1 (stereo not given) | 0.666
92 | CC1(C2CCN(CC(N)=O)CC2)CN(Cc2ccccc2)C(=O)CO1 (stereo not given) | -6.63

Row | Compound | cytotoxicity at 70.5 h [%]
93 | Cc1c(C)n(CC(O)CN2CCC(O)CC2)c2c(Cl)cccc12 (stereo not given) | 16.5
94 | c1ccc(OCc2nnn3c2CN(c2ncccn2)CCC3)nc1 | 6.14
95 | O=C(CCC1CCN(C2CSCCSC2)CC1)NCC1CCCO1 (stereo not given) | -7.42
96 | CCS(=O)(=O)N1CCN(Cc2ccncc2)c2nc(C)ccc2C1 | -5.64
97 | Cn1cc(-c2csc(CN3CCOCC3)n2)cn1 | -1.08
98 | Cn1cc(CN2CCCC3(CCN3S(C)(=O)=O)C2)cn1 (stereo not given) | 7.75
99 | CC(C)CNC(=O)N1C[C@@H]2CCCN[C@@H]2C1 | -8.84
100 | CNC(=O)COC1COC2(CCN(c3ncccn3)CC2)C1 (stereo not given) | -1.44
101 | O=C(c1cc[nH]n1)N1CCCC(c2cccc(-n3ccnc3)n2)C1 (stereo not given) | -10.3
102 | CC(C)CNC(=O)c1nn(C)c(NC(=O)Cc2ccccc2)c1F | -9.39
103 | O=S(=O)(c1cc(F)ccc1F)n1cc(Cl)cn1 | -4.29
104 | CC(=O)Nc1nc2c(s1)C1(CCCC1)Nc1ccccc1S2 | -3.55
105 | CCNc1cc2c(nn1)CCN(C(=O)c1c(C)noc1C)C2 | -2.94
106 | Cn1c(CCNC(=O)C2CCCN(C3CCOCC3)C2)n[nH]c1=O (stereo not given) | -1.23
107 | c1ccc(CN2CCn3c(Cn4cncn4)cnc3C2)nc1 | -10.2
108 | CN(C)CC(=O)N1CCC2(CC1)CN(Cc1cccnc1)C(=O)CO2 | 17.2
109 | CCn1nccc1CN(C)C(=O)Cn1nc(C)c(C)c1C | -4.43
110 | COc1ccc(C)cc1-n1cnnc1CC1CCNCC1 | -3.84
111 | CC(C)C(CNCc1cccc2c1OCO2)N1CCOCC1 (stereo not given) | 3.33
112 | CNc1nccc(C2CCCCN2Cc2cnn3cccnc23)n1 (stereo not given) | -9.3
113 | COCCn1c(-c2cccc(OC)c2)cnc1NC(=O)NCCC(C)C | -12.5
114 | Cc1ccc(-c2nc(CN3CCCCC3Cn3cncn3)no2)cc1 (stereo not given) | -7.36
115 | CC(C)c1noc(OCC(=O)N2CCCCC2C)n1 (stereo not given) | -2.39
